{"source": "paper PMC3480206", "about": "(Future microbiology, 2012)", "key": {"[1]": {"test_system": "EMB-resistant Mtb", "conditions": "cited from earlier work"}, "[2]": {"test_system": "Mycobacterium tuberculosis XDR strains", "test": "microbe, parasite or virus in culture", "assay_type": "cell-based"}, "[3]": {"test_system": "Mycobacterium tuberculosis", "test": "Alamar MIC", "assay_type": "cell-based", "conditions": "TAACF"}}}
{"smiles": "CC[C@@H](CO)NCCN[C@@H](CC)CO", "note": "[EMB, ethambutol]", "values": [{"measurement": "MIC on EMB-resistant Mtb", "setting": "[1]", "result": 184, "unit": "µg/mL"}]}
{"smiles": "CC(C)=CCC/C(C)=C/CNCCNC1C2CC3CC(C2)CC1C3", "note": "(centres unmarked) [SQ109, N-geranyl-N′-(2-adamantyl)ethane-1,2-diamine]", "values": [{"measurement": "MIC", "setting": "[2]; Mycobacterium tuberculosis", "result": 0.2, "unit": "µg/mL"}, {"measurement": "MIC", "setting": "[2]; XDR, also EMB-resistant, strain 587W1, Microbroth", "result": 0.20, "unit": "µg/mL"}, {"measurement": "MIC", "setting": "[3]; ATCC35822, INH-resistant, ATCC 35822, Alamar", "result": 0.78, "unit": "µg/mL"}, {"measurement": "MIC", "setting": "[3]; ATCC35838, RIF-resistant, ATCC 35838, Alamar", "result": "≤ 0.39", "unit": "µg/mL"}, {"measurement": "MIC", "setting": "[3]; CIP-resistant, Alamar", "result": "≤ 0.39", "unit": "µg/mL"}, {"measurement": "MIC", "setting": "[3]; EMB-resistant, Alamar", "result": 0.78, "unit": "µg/mL"}, {"measurement": "MIC", "setting": "[3]; KAN-resistant, Alamar", "result": 0.78, "unit": "µg/mL"}]}
